From US20170348369A1, “Plant Extract and Its Therapeutic Use” (Viridis Pharmaceutical Limited, priority 2008, published 2017)

Target: T1, purified human DNA topoisomerase IIα (Homo sapiens, UniProt P11388)
T1 construct: purchased TopoGEN
Assay: Inhibition of topoisomerase II activity (TopoGEN Topoisomerase II Drug Screening Kit)
Type: biochemical
Details: cell-free; FIG. 13; 0.3, 3, 30 μg/ml
Method: With the liquid extract ViP-E_Matr'08_1102, prepared according to example 7, the liquid extract ViP-E_Matr08_1106, prepared according to example 8, or the liquid extract ViP-E_Matr'08_1105, prepared according to example 9, […] As positive control etoposide was carried along.
The inhibition of topoisomerase II was determined using purified human DNA topoisomerase Ilα and the “Topoisomerase II Drug Screening Kit” from TopoGEN. Thereby it was proceeded according to the manufacturer's protocol. The DNA was separated by electrophoresis on an agarose gel and visualized under UV light after staining with ethidium bromide. With this approach the relaxed DNA (topoisomers) generated by topoisomerase II could be detected and clearly separated from the supercoiled DNA substrate.

T1 sequence (P11388 whole entry): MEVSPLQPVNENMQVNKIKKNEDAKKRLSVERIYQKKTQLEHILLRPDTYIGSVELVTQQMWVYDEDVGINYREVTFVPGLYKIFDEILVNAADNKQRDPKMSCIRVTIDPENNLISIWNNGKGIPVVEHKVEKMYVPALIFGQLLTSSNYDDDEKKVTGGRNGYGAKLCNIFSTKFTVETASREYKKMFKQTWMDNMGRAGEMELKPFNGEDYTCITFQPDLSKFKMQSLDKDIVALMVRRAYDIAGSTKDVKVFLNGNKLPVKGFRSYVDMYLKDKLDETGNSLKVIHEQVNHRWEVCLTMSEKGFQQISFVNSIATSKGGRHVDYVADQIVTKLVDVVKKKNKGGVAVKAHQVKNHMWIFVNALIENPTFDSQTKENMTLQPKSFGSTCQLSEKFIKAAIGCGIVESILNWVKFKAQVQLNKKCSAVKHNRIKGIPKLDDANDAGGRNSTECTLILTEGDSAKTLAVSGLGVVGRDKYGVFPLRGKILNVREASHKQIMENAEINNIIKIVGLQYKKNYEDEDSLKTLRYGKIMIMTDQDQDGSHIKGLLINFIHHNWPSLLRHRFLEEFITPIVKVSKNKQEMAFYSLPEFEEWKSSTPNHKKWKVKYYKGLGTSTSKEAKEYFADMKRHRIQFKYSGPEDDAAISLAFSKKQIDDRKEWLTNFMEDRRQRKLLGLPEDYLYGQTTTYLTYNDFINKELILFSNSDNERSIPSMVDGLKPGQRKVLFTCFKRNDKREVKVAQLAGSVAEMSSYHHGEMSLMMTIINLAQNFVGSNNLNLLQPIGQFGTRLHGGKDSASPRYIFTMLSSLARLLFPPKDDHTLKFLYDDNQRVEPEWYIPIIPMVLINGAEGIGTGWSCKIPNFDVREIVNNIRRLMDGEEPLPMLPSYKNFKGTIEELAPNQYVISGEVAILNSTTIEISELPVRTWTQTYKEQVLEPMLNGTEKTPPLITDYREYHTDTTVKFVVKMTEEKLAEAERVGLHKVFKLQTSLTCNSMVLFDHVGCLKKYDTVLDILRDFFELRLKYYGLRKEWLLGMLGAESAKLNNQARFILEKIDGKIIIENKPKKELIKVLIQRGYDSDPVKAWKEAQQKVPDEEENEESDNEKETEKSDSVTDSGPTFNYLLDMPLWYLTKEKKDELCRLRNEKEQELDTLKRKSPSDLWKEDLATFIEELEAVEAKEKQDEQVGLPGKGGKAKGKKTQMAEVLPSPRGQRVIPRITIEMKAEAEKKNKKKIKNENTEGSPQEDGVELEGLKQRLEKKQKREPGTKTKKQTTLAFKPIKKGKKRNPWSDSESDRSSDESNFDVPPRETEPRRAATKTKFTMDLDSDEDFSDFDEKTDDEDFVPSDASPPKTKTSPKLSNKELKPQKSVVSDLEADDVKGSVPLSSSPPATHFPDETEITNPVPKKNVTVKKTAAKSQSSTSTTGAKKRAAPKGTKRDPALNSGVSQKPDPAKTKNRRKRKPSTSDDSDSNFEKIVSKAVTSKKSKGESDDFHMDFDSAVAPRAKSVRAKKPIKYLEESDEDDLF

α-Bisabolol
inhibition of topoisomerase II activity: did not influence the topoisomerase II activity in all tested concentrations
